{
  "source": "patent US20210196720A1",
  "about": "(UROVANT SCIENCES GMBH, priority 2018, published 2021)",
  "key": {"[1]": {"assay": "Human plasma protein binding", "type": "in vitro ADME"}, "β3-AR": {"target": "β3-AR (Homo sapiens, UniProt P13945)", "sequence (P13945 whole entry)": "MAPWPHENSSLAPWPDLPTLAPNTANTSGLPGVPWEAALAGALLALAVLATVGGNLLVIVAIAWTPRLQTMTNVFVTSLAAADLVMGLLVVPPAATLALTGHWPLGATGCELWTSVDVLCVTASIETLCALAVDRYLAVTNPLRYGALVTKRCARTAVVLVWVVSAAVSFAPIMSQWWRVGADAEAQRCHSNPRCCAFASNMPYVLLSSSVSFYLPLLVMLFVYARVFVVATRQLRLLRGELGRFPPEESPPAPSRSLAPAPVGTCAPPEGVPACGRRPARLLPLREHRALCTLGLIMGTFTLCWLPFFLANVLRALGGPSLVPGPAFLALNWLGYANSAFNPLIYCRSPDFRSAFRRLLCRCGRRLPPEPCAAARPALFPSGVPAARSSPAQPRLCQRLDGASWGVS", "assay": "biochemical"}, "clinical": {"assay": "clinical", "details": "human, 100 mg", "description": "The relationship between clearance and renal function was modeled using linear regression."}, "[2]": {"assay": "Renal impairment PK, single 100 mg;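 further: pharmacokinetic parameters in patients with renal impairment of differing severity, statistically compared against matched healthy subjects as controls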", "design": "AUC0-inf GMR vs healthy / Cmax GMR vs healthy: unit not given beside the values"}, "[3]": {"details": "in vivo"}, "CYP3A4": {"target": "CYP3A4 (Homo sapiens, UniProt P08684)", "sequence (P08684 whole entry)": "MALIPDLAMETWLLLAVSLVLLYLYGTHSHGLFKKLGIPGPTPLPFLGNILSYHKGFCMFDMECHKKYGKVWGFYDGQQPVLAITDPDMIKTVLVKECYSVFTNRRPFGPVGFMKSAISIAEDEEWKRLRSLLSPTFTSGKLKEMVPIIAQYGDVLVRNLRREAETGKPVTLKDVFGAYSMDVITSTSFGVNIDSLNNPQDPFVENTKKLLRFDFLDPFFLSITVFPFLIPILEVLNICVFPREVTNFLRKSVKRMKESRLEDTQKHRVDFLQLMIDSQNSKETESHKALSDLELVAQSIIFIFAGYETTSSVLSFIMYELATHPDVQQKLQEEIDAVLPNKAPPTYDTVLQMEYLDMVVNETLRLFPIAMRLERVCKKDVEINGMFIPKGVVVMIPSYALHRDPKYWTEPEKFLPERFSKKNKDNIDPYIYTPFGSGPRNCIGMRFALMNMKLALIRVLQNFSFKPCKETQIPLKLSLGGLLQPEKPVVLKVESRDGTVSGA", "assay": "In vitro CYP metabolism", "type": "in vitro ADME"}, "[4]": {"assay": "Phase 2b OAB study, cardiovascular safety (HR, SBP, DBP, orthostatic AEs)", "type": "in vivo, human", "from_the_text": "None led to discontinuation. The overall incidence of orthostatic symptoms was low.\nSmall differences in the percent of subjects exceeding categorical heart rate and blood pressure thresholds for vibegron were similar to those in the tolterodine arm."}},
  "data": [
    {"smiles": "O=C(Nc1ccc(C[C@@H]2CC[C@H]([C@H](O)c3ccccc3)N2)cc1)[C@@H]1CCc2nccc(=O)n21", "note": "[Vibegron, (6S)-N-[4-[[(2S,5R)-5-[(R)-hydroxy(phenyl)methyl]pyrrolidin-2-yl]methyl]phenyl]-4-oxo-7,8-dihydro-6H-pyrrolo[1,2-a]pyrimidine-6-carboxamide]", "values": [
      {"measurement": "bound to human plasma proteins", "setting": "[1]", "value": "approximately 49%"},
      {"measurement": "unbound in human plasma", "setting": "[1]", "value": 49, "unit": "%"},
      {"measurement": "IC50", "setting": "β3-AR", "value": 193, "unit": "nM"},
      {"measurement": "Cmax", "setting": "clinical; in vivo", "value": 107, "unit": "ng/mL"},
      {"measurement": "Cmax", "setting": "clinical; plasma, oral", "value": 152, "unit": "ng/mL"},
      {"measurement": "half-life", "setting": "clinical; plasma, oral", "value": 131, "unit": "h"},
      {"measurement": "AUC(0-inf)", "setting": "[2]; healthy matched controls", "value": 1540, "unit": "ng·h/mL"},
      {"measurement": "Apparent terminal t1/2", "setting": "[2]; healthy matched controls", "value": 98.8, "unit": "h"},
      {"measurement": "CL/F", "setting": "[2]; healthy matched controls", "value": 64.9, "unit": "L/h"},
      {"measurement": "CLR", "setting": "[2]; healthy matched controls", "value": 10.4, "unit": "L/h"},
      {"measurement": "Fe[urine]48 hr", "setting": "[2]; healthy matched controls", "value": 7.9, "unit": "%"},
      {"measurement": "AUC0-inf GMR vs healthy", "setting": "[2]; mild renal impairment", "value": 1.49},
      {"measurement": "AUC0-inf higher than healthy controls", "setting": "[2]; mild renal impairment", "value": 49, "unit": "%"},
      {"measurement": "AUC(0-inf)", "setting": "[2]; mild renal impairment", "value": 2290, "unit": "ng·h/mL"},
      {"measurement": "Apparent terminal t1/2", "setting": "[2]; mild renal impairment", "value": 96.2, "unit": "h"},
      {"measurement": "CL/F", "setting": "[2]; mild renal impairment", "value": 43.6, "unit": "L/h"},
      {"measurement": "CLR", "setting": "[2]; mild renal impairment", "value": 6.3, "unit": "L/h"},
      {"measurement": "CLR reduction vs healthy controls", "setting": "[2]; mild renal impairment", "value": 39, "unit": "%"},
      {"measurement": "Cmax", "setting": "[2]; mild renal impairment", "value": 210, "unit": "ng/mL"},
      {"measurement": "Cmax GMR vs healthy", "setting": "[2]; mild renal impairment", "value": 1.96},
      {"measurement": "Cmax higher than healthy controls", "setting": "[2]; mild renal impairment", "value": 96, "unit": "%"},
      {"measurement": "Fe[urine]48 hr", "setting": "[2]; mild renal impairment", "value": 8.5, "unit": "%"},
      {"measurement": "Tmax", "setting": "[2]; mild renal impairment", "value": 1.0, "unit": "h"},
      {"measurement": "AUC0-inf GMR vs healthy", "setting": "[2]; moderate renal impairment", "value": 2.06},
      {"measurement": "AUC0-inf higher than healthy controls", "setting": "[2]; moderate renal impairment", "value": 106, "unit": "%"},
      {"measurement": "AUC(0-inf)", "setting": "[2]; moderate renal impairment", "value": 3170, "unit": "ng·h/mL"},
      {"measurement": "Apparent terminal t1/2", "setting": "[2]; moderate renal impairment", "value": 108, "unit": "h"},
      {"measurement": "CL/F", "setting": "[2]; moderate renal impairment", "value": 31.5, "unit": "L/h"},
      {"measurement": "CLR", "setting": "[2]; moderate renal impairment", "value": 3.6, "unit": "L/h"},
      {"measurement": "CLR reduction vs healthy controls", "setting": "[2]; moderate renal impairment", "value": 65, "unit": "%"},
      {"measurement": "Cmax", "setting": "[2]; moderate renal impairment", "value": 180, "unit": "ng/mL"},
      {"measurement": "Cmax GMR vs healthy", "setting": "[2]; moderate renal impairment", "value": 1.68},
      {"measurement": "Cmax higher than healthy controls", "setting": "[2]; moderate renal impairment", "value": 68, "unit": "%"},
      {"measurement": "Fe[urine]48 hr", "setting": "[2]; moderate renal impairment", "value": 5.5, "unit": "%"},
      {"measurement": "Tmax", "setting": "[2]; moderate renal impairment", "value": 1.3, "unit": "h"},
      {"measurement": "mean increase in AUC vs normal renal function", "setting": "[2]; moderate renal impairment", "value": 1.6, "unit": "fold"},
      {"measurement": "AUC0-inf GMR vs healthy", "setting": "[2]; severe renal impairment", "value": 1.83},
      {"measurement": "AUC0-inf higher than healthy controls", "setting": "[2]; severe renal impairment", "value": 83, "unit": "%"},
      {"measurement": "AUC(0-inf)", "setting": "[2]; severe renal impairment", "value": 2820, "unit": "ng·h/mL"},
      {"measurement": "CL/F", "setting": "[2]; severe renal impairment", "value": 35.5, "unit": "L/h"},
      {"measurement": "CLR", "setting": "[2]; severe renal impairment", "value": 1.9, "unit": "L/h"},
      {"measurement": "CLR reduction vs healthy controls", "setting": "[2]; severe renal impairment", "value": 82, "unit": "%"},
      {"measurement": "Cmax GMR vs healthy", "setting": "[2]; severe renal impairment", "value": 1.42},
      {"measurement": "Cmax higher than healthy controls", "setting": "[2]; severe renal impairment", "value": 42, "unit": "%"},
      {"measurement": "Fe[urine]48 hr", "setting": "[2]; severe renal impairment", "value": 2.1, "unit": "%"},
      {"measurement": "Tmax", "setting": "[2]; severe renal impairment", "value": 0.5, "unit": "h"},
      {"measurement": "effect on QTc or blood pressure", "setting": "[3]", "value": "no clinically meaningful effect"},
      {"measurement": "CYP responsible for in vitro metabolism", "setting": "CYP3A4", "value": "CYP3A4 is the predominant CYP responsible for in vitro metabolism"},
      {"measurement": "DBP change from baseline, mean (95% CI) max, week 1 to 8", "setting": "[4]; 3 mg", "value": "5.03 (3.92, 6.15) mm Hg"},
      {"measurement": "DBP change from baseline, mean (95% CI), week 1", "setting": "[4]; 3 mg", "value": "−0.37 (−1.69, 0.95) mm Hg"},
      {"measurement": "HR change from baseline, mean (95% CI) maximum, week 1 to 8", "setting": "[4]; 3 mg", "value": "5.57 (4.25, 6.90) bpm"},
      {"measurement": "HR change from baseline, mean (95% CI), week 1", "setting": "[4]; 3 mg", "value": "0.36 (−0.90, 1.62) bpm"},
      {"measurement": "SBP change from baseline, mean (95% CI) maximum, week 1 to 8", "setting": "[4]; 3 mg", "value": "7.14 (5.18, 9.10) mm Hg"},
      {"measurement": "SBP change from baseline, mean (95% CI), week 1", "setting": "[4]; 3 mg", "value": "−0.35 (−2.34, 1.65) mm Hg"},
      {"measurement": "DBP change from baseline, mean (95% CI) max, week 1 to 8", "setting": "[4]; 15 mg", "value": "6.37 (5.20, 7.53) mm Hg"},
      {"measurement": "DBP change from baseline, mean (95% CI), week 1", "setting": "[4]; 15 mg", "value": "0.03 (−1.52, 1.59) mm Hg"},
      {"measurement": "HR change from baseline, mean (95% CI) maximum, week 1 to 8", "setting": "[4]; 15 mg", "value": "6.56 (5.20, 7.92) bpm"},
      {"measurement": "HR change from baseline, mean (95% CI), week 1", "setting": "[4]; 15 mg", "value": "0.35 (−1.15, 1.85) bpm"},
      {"measurement": "SBP change from baseline, mean (95% CI) maximum, week 1 to 8", "setting": "[4]; 15 mg", "value": "8.93 (7.18, 10.67) mm Hg"},
      {"measurement": "SBP change from baseline, mean (95% CI), week 1", "setting": "[4]; 15 mg", "value": "−0.34 (−2.46, 1.78) mm Hg"},
      {"measurement": "subjects with orthostatic related AEs", "setting": "[4]; 15 mg", "value": 0.3, "unit": "%"},
      {"measurement": "DBP change from baseline, mean (95% CI) max, week 1 to 8", "setting": "[4]; 50 mg", "value": "4.19 (3.10, 5.29) mm Hg"}
    ]}
  ]
}
